# Target: T1, AM2 receptor (1321N1 cells transfected with CALCRL+RAMP3) (Homo sapiens, UniProt O60896+Q16602)
# T1 construct: host or cells: 1321N1 cells
# Experiment: AM2 receptor inhibition, LANCE cAMP agonist-antagonist competition assay
# Format: cell-based
# Conditions: inhibition of AM induced cAMP activation, read-out: AM2 D2 protocol: pIC50 (converted)
# How it was run: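 cAMP was quantified by LANCE TR-FRET after an EC50 challenge with adrenomedullin (15 min, room temperature) in CALCRL+RAMP3-transfected 1321N1 cells (2500/well) that had first been exposed to compound for 30 min. Buffer was pH 7.4 HBSS with HEPES and BSA. Forskolin defined 100% stimulation and vehicle 0%.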
# T1 sequence (Q16602 23-461): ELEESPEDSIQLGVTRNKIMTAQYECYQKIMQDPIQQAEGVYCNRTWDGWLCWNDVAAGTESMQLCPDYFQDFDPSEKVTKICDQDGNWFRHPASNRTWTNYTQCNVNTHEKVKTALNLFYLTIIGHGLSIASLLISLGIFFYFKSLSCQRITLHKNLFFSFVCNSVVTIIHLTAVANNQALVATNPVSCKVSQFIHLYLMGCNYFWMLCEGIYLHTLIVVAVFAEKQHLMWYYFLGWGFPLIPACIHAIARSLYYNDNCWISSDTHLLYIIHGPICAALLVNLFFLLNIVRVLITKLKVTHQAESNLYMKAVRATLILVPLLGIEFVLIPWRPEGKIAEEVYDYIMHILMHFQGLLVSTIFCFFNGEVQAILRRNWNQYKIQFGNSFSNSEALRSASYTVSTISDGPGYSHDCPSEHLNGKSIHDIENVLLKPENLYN
# T1 sequence (O60896 24-148): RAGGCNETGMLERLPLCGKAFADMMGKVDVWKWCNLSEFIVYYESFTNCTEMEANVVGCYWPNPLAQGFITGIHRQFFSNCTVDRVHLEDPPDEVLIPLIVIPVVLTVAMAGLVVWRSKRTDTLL
row,Compound,IC50 [nM]
1,"CCC1(C(=O)N(CC(=O)Nc2ccc3c(c2)C[C@@]2(C3)C(=O)Nc3ncccc32)Cc2ccccc2CNC)CCN(S(=O)(=O)NC)CC1 [Example 117, (R)-4-Ethyl-N-(2-((methylamino)methyl)benzyl)-1-(N-methylsulfamoyl)-N-(2-oxo-2-((2′-oxo-1,1′,2′,3-tetrahydrospiro[indene-2,3′-pyrrolo[2,3-b]pyridin]-5-yl)amino)ethyl)piperidine-4-carboxamide]",4.57
2,"CCC1(C(=O)N(CC(=O)Nc2ccc3c(c2)C[C@@]2(C3)C(=O)Nc3ncccc32)Cc2ccccc2CNC)CCN(C(=O)N2CCC(C(F)(F)F)CC2)CC1 [Example 110, (R)-4-Ethyl-N-(2-((methylamino)methyl)benzyl)-N-(2-oxo-2-((2′-oxo-1,1′,2′,3-tetrahydrospiro[indene-2,3′-pyrrolo[2,3-b]pyridin]-5-yl)amino)ethyl)-1-(4-(trifluoromethyl)piperidine-1-carbonyl)piperidine-4-carboxamide]",93.3
3,"CCC1(C(=O)N(CC(=O)Nc2ccc3c(c2)C[C@@]2(C3)C(=O)Nc3ncccc32)Cc2ccccc2CNC)CCN(C(=O)N2CC(F)(F)C2)CC1 [Example 109, (R)-1-(3,3-Difluoroazetidine-1-carbonyl)-4-ethyl-N-(2-((methylamino)methyl)benzyl)-N-(2-oxo-2-((2′-oxo-1,1′,2′,3-tetrahydrospiro[indene-2,3′-pyrrolo[2,3-b]pyridin]-5-yl)amino)ethyl)piperidine-4-carboxamide]",7940
4,"CNCc1ccccc1CN(CC(=O)Nc1ccc2c(c1)C[C@@]1(C2)C(=O)Nc2ncccc21)C(=O)C1(C)CCN(C(=O)CN)CC1 [Example 28, (R)-1-(2-Aminoacetyl)-4-methyl-N-(2-((methylamino)methyl)benzyl)-N-(2-oxo-2-((2′-oxo-1,1′,2′,3-tetrahydrospiro[indene-2,3′-pyrrolo[2,3-b]pyridin]-5-yl)amino)ethyl)piperidine-4-carboxamide]",3.55
5,"CNCc1ccccc1CN(CC(=O)Nc1ccc2c(c1)C[C@@]1(C2)C(=O)Nc2ncccc21)C(=O)C1(C)CCN(CC(=O)O)CC1 [Example 43, (R)-2-(4-Methyl-4-((2-((methylamino)methyl)benzyl)(2-oxo-2-((2′-oxo-1,1′,2′,3-tetrahydrospiro[indene-2,3′-pyrrolo[2,3-b]pyridin]-5-yl)amino)ethyl)carbamoyl)piperidin-1-yl)acetic Acid]",135
6,"CNCc1ccccc1CN(CC(=O)Nc1ccc2c(c1)C[C@@]1(C2)C(=O)Nc2ncccc21)C(=O)C1(C)CCN(C(=O)CC2CC2)CC1 [Example 27, (R)-1-(2-Cyclopropylacetyl)-4-methyl-N-(2-((methylamino)methyl)benzyl)-N-(2-oxo-2-((2′-oxo-1,1′,2′,3-tetrahydrospiro[indene-2,3′-pyrrolo[2,3-b]pyridin]-5-yl)amino)ethyl)piperidine-4-carboxamide]",95.5
7,"CNCc1ccccc1CN(CC(=O)Nc1ccc2c(c1)C[C@@]1(C2)C(=O)Nc2ncccc21)C(=O)C1(COC)CCN(C(C)=O)CC1 [Example 126, (R)-1-Acetyl-4-(methoxymethyl)-N-(2-((methylamino)methyl)benzyl)-N-(2-oxo-2-((2′-oxo-1,1′,2′,3-tetrahydrospiro[indene-2,3′-pyrrolo[2,3-b]pyridin]-5-yl)amino)ethyl)piperidine-4-carboxamide]",174
8,"CCC1(C(=O)N(CC(=O)Nc2ccc3c(c2)C[C@@]2(C3)C(=O)Nc3ncccc32)Cc2ccccc2CNC)CCN(S(=O)(=O)N(C)C)CC1 [Example 118, (R)-1-(N,N-Dimethylsulfamoyl)-4-ethyl-N-(2-((methylamino)methyl)benzyl)-N-(2-oxo-2-((2′-oxo-1,1′,2′,3-tetrahydrospiro[indene-2,3′-pyrrolo[2,3-b]pyridin]-5-yl)amino)ethyl)piperidine-4-carboxamide]",34.7
9,"CNCc1ccccc1CN(CC(=O)Nc1ccc2c(c1)C[C@@]1(C2)C(=O)Nc2ncccc21)C(=O)C1(C)CCN(CC(=O)N2CCNCC2)CC1 [Example 44, (R)-4-Methyl-N-(2-((methylamino)methyl)benzyl)-N-(2-oxo-2-((2′-oxo-1,1′,2′,3-tetrahydrospiro[indene-2,3′-pyrrolo[2,3-b]pyridin]-5-yl)amino)ethyl)-1-(2-oxo-2-(piperazin-1-yl)ethyl)piperidine-4-carboxamide]",10.7
10,"CNCc1ccccc1CN(CC(=O)Nc1ccc2c(c1)C[C@@]1(C2)C(=O)Nc2ncccc21)C(=O)C1(C)CCN(Cc2cccc(C(=O)O)c2)CC1 [Example 47, (R)-3-((4-Methyl-4-((2-((methylamino)methyl)benzyl)(2-oxo-2-((2′-oxo-1,1′,2′,3-tetrahydrospiro[indene-2,3′-pyrrolo[2,3-b]pyridin]-5-yl)amino)ethyl)carbamoyl)piperidin-1-yl)methyl)benzoic Acid]",5.01
11,"CCC1(C(=O)N(CC(=O)Nc2ccc3c(c2)C[C@@]2(C3)C(=O)Nc3ncccc32)Cc2ccccc2CNC)CCN(C(=O)N2CCCC2)CC1 [Example 102, (R)-4-Ethyl-N-(2-((methylamino)methyl)benzyl)-N-(2-oxo-2-((2′-oxo-1,1′,2′,3-tetrahydrospiro[indene-2,3′-pyrrolo[2,3-b]pyridin]-5-yl)amino)ethyl)-1-(pyrrolidine-1-carbonyl)piperidine-4-carboxamide]",6.92
12,"CNCc1ccccc1CN(CC(=O)Nc1ccc2c(c1)C[C@@]1(C2)C(=O)Nc2ncccc21)C(=O)C1(C)CCN(C(=O)c2cnccn2)CC1 [Example 19, (R)-4-Methyl-N-(2-((methylamino)methyl)benzyl)-N-(2-oxo-2-((2′-oxo-1,1′,2′,3-tetrahydrospiro[indene-2,3′-pyrrolo[2,3-b]pyridin]-5-yl)amino)ethyl)-1-(pyrazine-2-carbonyl)piperidine-4-carboxamide]",4.47
13,"CNCc1cc(F)ccc1CN(CC(=O)Nc1ccc2c(c1)C[C@@]1(C2)C(=O)Nc2ncccc21)C(=O)C1(C)CCNCC1 [Example 137, (R)—N-[[4-Fluoro-2-(methylaminomethyl)phenyl]methyl]-4-methyl-N-[2-oxo-2-[[(3R)-2-oxospiro[1H-pyrrolo[2,3-b]pyridine-3,2′-indane]-5′-yl]amino]ethyl]piperidine-4-carboxamide]",417
14,"CNCc1ccccc1CN(CC(=O)Nc1ccc2c(c1)C[C@@]1(C2)C(=O)Nc2ncccc21)C(=O)C1(C)CCN(C(=O)c2ccn[nH]2)CC1 [Example 25, (R)-4-Methyl-N-(2-((methylamino)methyl)benzyl)-N-(2-oxo-2-((2′-oxo-1,1′,2′,3-tetrahydrospiro[indene-2,3′-pyrrolo[2,3-b]pyridin]-5-yl)amino)ethyl)-1-(1H-pyrazole-5-carbonyl) piperidine-4-carboxamide]",2.14
15,CCC1(C(=O)N(CC(=O)Nc2ccc3c(c2)C[C@@]2(C3)C(=O)Nc3ncccc32)Cc2ccccc2CNC)CCN(C(=O)NC23CC(C2)C3)CC1 [Example 105],50.1
16,CNCc1ccccc1CN(CC(=O)Nc1ccc2c(c1)CC1(C2)C(=O)Nc2ncccc21)C(=O)C1(C)CCN(C(=O)CCN(C)C)CC1 (centres unmarked) [Example 31],1.15
17,"CNCc1ccccc1CN(CC(=O)Nc1ccc2c(c1)C[C@@]1(C2)C(=O)Nc2ncccc21)C(=O)C1(C)CN(C(C)=O)C1 [Example 144, (R)-1-Acetyl-3-methyl-N-(2-((methylamino)methyl)benzyl)-N-(2-oxo-2-((2′-oxo-1,1′,2′,3-tetrahydrospiro[indene-2,3′-pyrrolo[2,3-b]pyridin]-5-yl)amino)ethyl)azetidine-3-carboxamide]",75.9

# From US20230036854A1, “HETEROCYCLIC SPIRO-COMPOUNDS AS AM2 RECEPTOR INHIBITORS” (THE UNIVERSITY OF SHEFFIELD, priority 2018, published 2023)
